Key:
Assay in all cases: Test E pre-/postemergence greenhouse test, plant response rating 0-100
Format in all cases: in vivo
[1] = tested on: arrowleaf sida (Sida rhombifolia); conditions: Postemergence
Method in brief: (§1)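 Pre- and postemergence sprays, vehicle non-phytotoxic solvent containing surfactant; postemergence plants 2–18 cm tall at the 1–4-leaf stage. Scored against controls after 14 to 21 days in a greenhouse, 0 being no effect and 100 complete control.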

[2] = tested on: field bindweed (Convolvulus arvensis); conditions: Postemergence, scale 0 to 100
Method in brief: as §1

[3] = tested on: Brazilian crabgrass (Digitaria horizontalis); conditions: Postemergence, scale 0 to 100
Method in brief: as §1

[4] = tested on: waterhemp (common waterhemp, Amaranthus rudis); conditions: Postemergence, scale 0 to 100
Method in brief: as §1

corn (Zea mays) = conditions: Postemergence, scale 0 to 100
Method in brief: as §1

[5] = tested on: dayflower (Virginia (VA) dayflower, Commelina virginica); conditions: Postemergence, scale 0 to 100
Method in brief: as §1

[6] = tested on: barnyardgrass (Echinochloa crus-galli); conditions: Postemergence, scale 0 to 100
Method in brief: as §1

[7] = tested on: sandbur (southern sandbur, Cenchrus echinatus); conditions: Postemergence, scale 0 to 100
Method in brief: as §1

[8] = tested on: Italian ryegrass (Lolium multiflorum); conditions: Postemergence, scale 0 to 100
Method in brief: as §1

[9] = tested on: hairy beggarticks (Bidens pilosa); conditions: Postemergence, scale 0 to 100
Method in brief: as §1

[10] = tested on: palmer pigweed (Amaranthus palmeri); conditions: Postemergence, scale 0 to 100
Method in brief: as §1

[11] = tested on: wild poinsettia (Euphorbia heterophylla); conditions: Postemergence, scale 0 to 100
Method in brief: as §1

Cn1cc(C(=O)c2cccs2)c(-c2cc(Cl)cc(Cl)c2)n1 [Compound 17]
0: Plant response rating, Field Bindweed ([2]; 31 g ai/ha) | Plant response rating, Crabgrass, Brazil ([3]; 31 g ai/ha) | Plant response rating, Crabgrass, Brazil ([3]; 62 g ai/ha) | Plant response rating, Crabgrass, Brazil ([3]; 125 g ai/ha) | Plant response rating, Crabgrass, Brazil ([3]; 250 g ai/ha) | Plant response rating, Corn (corn (Zea mays); 31 g ai/ha) | Plant response rating, Corn (corn (Zea mays); 62 g ai/ha) | Plant response rating, Corn (corn (Zea mays); 125 g ai/ha) | Plant response rating, Corn (corn (Zea mays); 250 g ai/ha) | Plant response rating, Corn (corn (Zea mays); 500 g ai/ha) | Plant response rating, Dayflower, VA ([5]; 31 g ai/ha) | Plant response rating, Dayflower, VA ([5]; 62 g ai/ha) | Plant response rating, Dayflower, VA ([5]; 125 g ai/ha) | Plant response rating, Dayflower, VA ([5]; 250 g ai/ha) | Plant response rating, Dayflower, VA ([5]; 500 g ai/ha) | Plant response rating, Barnyardgrass ([6]; 31 g ai/ha) | Plant response rating, Barnyardgrass ([6]; 62 g ai/ha) | Plant response rating, Barnyardgrass ([6]; 125 g ai/ha) | Plant response rating, Barnyardgrass ([6]; 250 g ai/ha) | Plant response rating, Sandbur ([7]; 31 g ai/ha) | Plant response rating, Sandbur ([7]; 62 g ai/ha) | Plant response rating, Sandbur ([7]; 125 g ai/ha) | Plant response rating, Sandbur ([7]; 250 g ai/ha) | Plant response rating, Ryegrass, Italian ([8]; 31 g ai/ha) | Plant response rating, Ryegrass, Italian ([8]; 62 g ai/ha) | Plant response rating, Ryegrass, Italian ([8]; 125 g ai/ha) | Plant response rating, Ryegrass, Italian ([8]; 250 g ai/ha) | Plant response rating, Ryegrass, Italian ([8]; 500 g ai/ha) | Plant response rating, Poinsettia, Wild ([11]; 31 g ai/ha) | Plant response rating, Poinsettia, Wild ([11]; 62 g ai/ha) | Plant response rating, Poinsettia, Wild ([11]; 125 g ai/ha)
25: Plant response rating, Beggarticks ([9]; 62 g ai/ha)
20: Plant response rating, Field Bindweed ([2]; 125 g ai/ha) | Plant response rating, Barnyardgrass ([6]; 500 g ai/ha) | Plant response rating, Poinsettia, Wild ([11]; 250 g ai/ha)
70: Plant response rating, Arrowleaf Sida ([1]; 62 g ai/ha, scale 0 to 100) | Plant response rating, Pigweed, Palmer ([10]; 62 g ai/ha)
15: Plant response rating, Crabgrass, Brazil ([3]; 500 g ai/ha)
40: Plant response rating, Beggarticks ([9]; 250 g ai/ha)
60: Plant response rating, Arrowleaf Sida ([1]; 31 g ai/ha, scale 0 to 100) | Plant response rating, Beggarticks ([9]; 500 g ai/ha) | Plant response rating, Pigweed, Palmer ([10]; 31 g ai/ha)
30: Plant response rating, Field Bindweed ([2]; 250 g ai/ha) | Plant response rating, Field Bindweed ([2]; 500 g ai/ha) | Plant response rating, Poinsettia, Wild ([11]; 500 g ai/ha)
95: Plant response rating, Waterhemp ([4]; 500 g ai/ha) | Plant response rating, Pigweed, Palmer ([10]; 500 g ai/ha)
90: Plant response rating, Waterhemp ([4]; 250 g ai/ha)
5: Plant response rating, Beggarticks ([9]; 31 g ai/ha)
10: Plant response rating, Field Bindweed ([2]; 62 g ai/ha) | Plant response rating, Sandbur ([7]; 500 g ai/ha)
85: Plant response rating, Arrowleaf Sida ([1]; 500 g ai/ha, scale 0 to 100 (0 no effect, 100 complete control)) | Plant response rating, Waterhemp ([4]; 125 g ai/ha) | Plant response rating, Pigweed, Palmer ([10]; 250 g ai/ha)
80: Plant response rating, Arrowleaf Sida ([1]; 250 g ai/ha, scale 0 to 100) | Plant response rating, Waterhemp ([4]; 62 g ai/ha) | Plant response rating, Pigweed, Palmer ([10]; 125 g ai/ha)
75: Plant response rating, Arrowleaf Sida ([1]; 125 g ai/ha, scale 0 to 100)
50: Plant response rating, Waterhemp ([4]; 31 g ai/ha)
35: Plant response rating, Beggarticks ([9]; 125 g ai/ha)
